Reference: ChEMBL document CHEMBL5634136 (Eur J Med Chem, 2023)

System: HepG2
Assay: Antiproliferative activity against human HepG2 cells harboring VEGFR assessed as inhibition of cell growth incubated for 72 hrs by MTT assay
Assay type: functional, cell-based
Conditions: HepG2, 72 h

SMILES	IC50 [nM]
CN1CCN(C2CCN(c3ccc(Nc4nccc(-c5cn(C)c6ccccc56)n4)cc3NS(=O)(=O)C3CC3)CC2)CC1	1500
CN(C)C1CCN(c2ccc(Nc3nccc(-c4cn(C)c5ccccc45)n3)cc2NS(=O)(=O)C2CC2)CC1	1920
C=CC(=O)Nc1cc(Nc2nccc(-c3cn(C)c4ccccc34)n2)c(OC)cc1N(C)CCN(C)C [OSIMERTINIB]	3060

Molecular target: Epidermal growth factor receptor (Mus musculus) (UniProt Q01279)
Sequence (Q01279 whole entry): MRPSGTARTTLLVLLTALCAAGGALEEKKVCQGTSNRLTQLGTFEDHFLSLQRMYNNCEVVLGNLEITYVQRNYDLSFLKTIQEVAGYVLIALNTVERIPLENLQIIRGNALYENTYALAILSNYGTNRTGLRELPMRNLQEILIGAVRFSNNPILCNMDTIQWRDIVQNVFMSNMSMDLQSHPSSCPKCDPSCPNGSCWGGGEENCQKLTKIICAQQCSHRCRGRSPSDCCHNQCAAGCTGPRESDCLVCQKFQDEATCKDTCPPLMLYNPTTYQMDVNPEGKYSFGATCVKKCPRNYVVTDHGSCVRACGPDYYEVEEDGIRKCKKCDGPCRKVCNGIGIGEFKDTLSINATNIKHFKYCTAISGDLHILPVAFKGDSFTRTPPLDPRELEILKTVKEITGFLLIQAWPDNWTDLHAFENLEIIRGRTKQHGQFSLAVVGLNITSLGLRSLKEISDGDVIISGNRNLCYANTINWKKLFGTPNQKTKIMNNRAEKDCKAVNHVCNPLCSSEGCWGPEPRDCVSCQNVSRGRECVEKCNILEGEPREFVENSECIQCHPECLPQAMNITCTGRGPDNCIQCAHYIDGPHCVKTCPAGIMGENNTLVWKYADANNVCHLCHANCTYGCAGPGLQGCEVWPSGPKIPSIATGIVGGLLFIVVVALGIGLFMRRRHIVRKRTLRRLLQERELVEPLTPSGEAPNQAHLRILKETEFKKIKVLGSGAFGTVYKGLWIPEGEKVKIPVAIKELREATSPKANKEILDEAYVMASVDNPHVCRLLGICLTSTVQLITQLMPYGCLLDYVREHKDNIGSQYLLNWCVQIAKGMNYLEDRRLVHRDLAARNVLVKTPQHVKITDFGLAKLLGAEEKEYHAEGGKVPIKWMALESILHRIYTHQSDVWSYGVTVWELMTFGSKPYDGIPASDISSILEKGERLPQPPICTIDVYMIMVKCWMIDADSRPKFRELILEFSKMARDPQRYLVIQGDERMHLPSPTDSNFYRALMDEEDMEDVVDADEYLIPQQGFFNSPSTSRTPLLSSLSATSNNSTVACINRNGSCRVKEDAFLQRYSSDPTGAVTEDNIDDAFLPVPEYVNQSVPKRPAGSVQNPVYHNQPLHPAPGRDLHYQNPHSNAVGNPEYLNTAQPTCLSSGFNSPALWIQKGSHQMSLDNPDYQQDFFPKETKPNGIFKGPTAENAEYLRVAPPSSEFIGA
Assay: Inhibition of EGFR in mouse KC-0116 cells assessed as downregulation of ERK protein expression level incubated for 24 hrs by Western blotting analysis
Assay type: cell-based
Conditions: not given

SMILES	inhibition
CN1CCN(C2CCN(c3ccc(Nc4nccc(-c5cn(C)c6ccccc56)n4)cc3NS(=O)(=O)C3CC3)CC2)CC1	Dose-Dependent Effect

System: not listed separately
Assay: Antiproliferative activity against mouse KC-0122 cells assessed as inhibition of cell growth incubated for 72 hrs by MTT assay
Assay type: functional, cell-based
Conditions: KC-0122, 72 h

SMILES	IC50 [nM]
CN1CCN(C2CCN(c3ccc(Nc4nccc(-c5cn(C)c6ccccc56)n4)cc3NS(=O)(=O)C3CC3)CC2)CC1	200
COc1cc(N(C)CCN(C)C)c(NC(=O)CCN)cc1Nc1nccc(-c2cn(C)c3ccccc23)n1	1630
COc1cc(N(C)CCN(C)C)c(NC(=O)CNC(C)=O)cc1Nc1nccc(-c2cn(C)c3ccccc23)n1	1450
COc1cc(OCCN(C)C)c(NC(=O)CN)cc1Nc1nccc(-c2cn(C)c3ccccc23)n1	5450
CN(C)C1CCN(c2ccc(Nc3nccc(-c4cn(C)c5ccccc45)n3)cc2NS(=O)(=O)C2CC2)CC1	250
COc1cc(N2CCN(C)CC2)c(NC(=O)CN)cc1Nc1nccc(-c2cn(C)c3ccccc23)n1	1170
Cn1cc(-c2ccnc(Nc3cccc(NC(=O)CCN)c3)n2)c2ccccc21	4770
Cn1cc(-c2ccnc(Nc3ccc(N4CCC(N5CCOCC5)CC4)cc3)n2)c2ccccc21	5740
COc1cc(N(C)CCN(C)C)c(NC(=O)CNS(C)(=O)=O)cc1Nc1nccc(-c2cn(C)c3ccccc23)n1	1170
CN(C)C1CCN(c2ccc(Nc3nccc(-c4cn(C)c5ccccc45)n3)cc2NC(=O)CN)CC1	460
CN(C)CCN(c1ccc(Nc2nccc(-c3cn(C)c4ccccc34)n2)cc1)S(C)(=O)=O	500
CN(C)C1CCN(c2ccc(Nc3nccc(-c4cn(C)c5ccccc45)n3)cc2)CC1	450
CN1CCN(C2CCN(c3ccc(Nc4nccc(-c5cn(C)c6ccccc56)n4)cc3)CC2)CC1	1310
Cn1cc(-c2ccnc(Nc3ccc(N4CCOCC4)cc3)n2)c2ccccc21	> 10000
COc1cc(N(C)CCN(C)C)c(NC(=O)CNC(=O)OC(C)(C)C)cc1Nc1nccc(-c2cn(C)c3ccccc23)n1	1280

System: A-431
Assay: Antiproliferative activity against human A-431 cells harboring wild type EGFR assessed as inhibition of cell growth incubated for 72 hrs by MTT assay
Assay type: functional, cell-based
Conditions: A-431, 72 h

SMILES	IC50 [nM]
CN1CCN(C2CCN(c3ccc(Nc4nccc(-c5cn(C)c6ccccc56)n4)cc3NS(=O)(=O)C3CC3)CC2)CC1	2130
CN(C)C1CCN(c2ccc(Nc3nccc(-c4cn(C)c5ccccc45)n3)cc2NS(=O)(=O)C2CC2)CC1	2490

Molecular target: Epidermal growth factor receptor (Mus musculus) (UniProt Q01279)
Assay: Inhibition of EGFR in mouse KC-0122 cells assessed as downregulation of AKT protein expression level incubated for 24 hrs by Western blotting analysis
Assay type: cell-based
Conditions: not given

SMILES	inhibition
CN1CCN(C2CCN(c3ccc(Nc4nccc(-c5cn(C)c6ccccc56)n4)cc3NS(=O)(=O)C3CC3)CC2)CC1	Dose-Dependent Effect

Molecular target: Epidermal growth factor receptor (Mus musculus) (UniProt Q01279)
Assay: Inhibition of EGFR in mouse KC-0122 cells assessed as downregulation of ERK protein expression level incubated for 24 hrs by Western blotting analysis
Assay type: cell-based
Conditions: not given

SMILES	inhibition
CN1CCN(C2CCN(c3ccc(Nc4nccc(-c5cn(C)c6ccccc56)n4)cc3NS(=O)(=O)C3CC3)CC2)CC1	Dose-Dependent Effect

System: not listed separately
Assay: Antiproliferative activity against mouse KC-0116 cells assessed as inhibition of cell growth incubated for 72 hrs by MTT assay
Assay type: functional, cell-based
Conditions: KC-0116, 72 h

SMILES	IC50 [nM]
CN1CCN(C2CCN(c3ccc(Nc4nccc(-c5cn(C)c6ccccc56)n4)cc3NS(=O)(=O)C3CC3)CC2)CC1	170
COc1cc(N(C)CCN(C)C)c(NC(=O)CCN)cc1Nc1nccc(-c2cn(C)c3ccccc23)n1	1490
COc1cc(N(C)CCN(C)C)c(NC(=O)CNC(C)=O)cc1Nc1nccc(-c2cn(C)c3ccccc23)n1	1980
COc1cc(OCCN(C)C)c(NC(=O)CN)cc1Nc1nccc(-c2cn(C)c3ccccc23)n1	1500
CN(C)C1CCN(c2ccc(Nc3nccc(-c4cn(C)c5ccccc45)n3)cc2NS(=O)(=O)C2CC2)CC1	240
COc1cc(N2CCN(C)CC2)c(NC(=O)CN)cc1Nc1nccc(-c2cn(C)c3ccccc23)n1	1650
Cn1cc(-c2ccnc(Nc3cccc(NC(=O)CCN)c3)n2)c2ccccc21	4990
Cn1cc(-c2ccnc(Nc3ccc(N4CCC(N5CCOCC5)CC4)cc3)n2)c2ccccc21	1710
COc1cc(N(C)CCN(C)C)c(NC(=O)CNS(C)(=O)=O)cc1Nc1nccc(-c2cn(C)c3ccccc23)n1	1550
CN(C)C1CCN(c2ccc(Nc3nccc(-c4cn(C)c5ccccc45)n3)cc2NC(=O)CN)CC1	440
CN(C)CCN(c1ccc(Nc2nccc(-c3cn(C)c4ccccc34)n2)cc1)S(C)(=O)=O	430
CN(C)C1CCN(c2ccc(Nc3nccc(-c4cn(C)c5ccccc45)n3)cc2)CC1	400
CN1CCN(C2CCN(c3ccc(Nc4nccc(-c5cn(C)c6ccccc56)n4)cc3)CC2)CC1	840
Cn1cc(-c2ccnc(Nc3ccc(N4CCOCC4)cc3)n2)c2ccccc21	7000
COc1cc(N(C)CCN(C)C)c(NC(=O)CNC(=O)OC(C)(C)C)cc1Nc1nccc(-c2cn(C)c3ccccc23)n1	1290

Molecular target: Epidermal growth factor receptor (Mus musculus) (UniProt Q01279)
Assay: Inhibition of EGFR in mouse KC-0116 cells assessed as downregulation of AKT protein expression level incubated for 24 hrs by Western blotting analysis
Assay type: cell-based
Conditions: not given

SMILES	inhibition
CN1CCN(C2CCN(c3ccc(Nc4nccc(-c5cn(C)c6ccccc56)n4)cc3NS(=O)(=O)C3CC3)CC2)CC1	Dose-Dependent Effect

System: NCI-H1975
Assay: Antiproliferative activity against human NCI-H1975 cells harboring EGFR L858R/T790M mutant assessed as inhibition of cell growth incubated for 72 hrs by MTT assay
Assay type: functional, cell-based
Conditions: NCI-H1975, 72 h

SMILES	IC50 [nM]
CN1CCN(C2CCN(c3ccc(Nc4nccc(-c5cn(C)c6ccccc56)n4)cc3NS(=O)(=O)C3CC3)CC2)CC1	1020
CN(C)C1CCN(c2ccc(Nc3nccc(-c4cn(C)c5ccccc45)n3)cc2NS(=O)(=O)C2CC2)CC1	1420

Molecular target: Epidermal growth factor receptor (Mus musculus) (UniProt Q01279)
Assay: Inhibition of EGFR in mouse KC-0122 cells assessed as downregulation of EGFR phosphorylation level incubated for 24 hrs by Western blotting analysis
Assay type: cell-based
Conditions: not given

SMILES	inhibition
CN1CCN(C2CCN(c3ccc(Nc4nccc(-c5cn(C)c6ccccc56)n4)cc3NS(=O)(=O)C3CC3)CC2)CC1	Dose-Dependent Effect

Molecular target: Epidermal growth factor receptor (Mus musculus) (UniProt Q01279)
Assay: Inhibition of EGFR in mouse KC-0116 cells assessed as downregulation of EGFR phosphorylation level incubated for 24 hrs by Western blotting analysis
Assay type: cell-based
Conditions: not given

SMILES	inhibition
CN1CCN(C2CCN(c3ccc(Nc4nccc(-c5cn(C)c6ccccc56)n4)cc3NS(=O)(=O)C3CC3)CC2)CC1	Dose-Dependent Effect

System: HCC827
Assay: Antiproliferative activity against human HCC827 cells harboring EGFR Del19 mutant assessed as inhibition of cell growth incubated for 72 hrs by MTT assay
Assay type: functional, cell-based
Conditions: HCC827, 72 h

SMILES	IC50 [nM]
CN1CCN(C2CCN(c3ccc(Nc4nccc(-c5cn(C)c6ccccc56)n4)cc3NS(=O)(=O)C3CC3)CC2)CC1	310
CN(C)C1CCN(c2ccc(Nc3nccc(-c4cn(C)c5ccccc45)n3)cc2NS(=O)(=O)C2CC2)CC1	220
C=CC(=O)Nc1cc(Nc2nccc(-c3cn(C)c4ccccc34)n2)c(OC)cc1N(C)CCN(C)C [OSIMERTINIB]	1
